Usually inhibition stands for the relative decrease from the control value, in per cent.

The test has as its target T1, human μ opiate receptor (Homo sapiens, UniProt P35372).
T1 construct: purchased PerkinElmer Life Sciences, Zaventem, Belgium RB-HOM; host or cells: CHO-K1 cells (membrane preparation)
The test is described as follows: Affinity for the human μ opiate receptor ([3H]-naloxone displacement, CHO-K1 receptor membrane preparation, SPA). The conditions noted are these: test concentration of 1 μM; read-out: μ (binding on the μ opioid receptor, % inhibition). The format is binding. The procedure, abridged: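 Membranes from CHO-K1 cells expressing the human μ opiate receptor (15-40 μg protein per well) were incubated with test compound, 1 nmol/l [3H]-naloxone and WGA-SPA beads in 50 mmol/l Tris-HCl with 0.06% BSA for 90 minutes at room temperature. Values are % inhibition of specific binding at 1 μmol/l.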

T1 sequence (P35372 whole entry): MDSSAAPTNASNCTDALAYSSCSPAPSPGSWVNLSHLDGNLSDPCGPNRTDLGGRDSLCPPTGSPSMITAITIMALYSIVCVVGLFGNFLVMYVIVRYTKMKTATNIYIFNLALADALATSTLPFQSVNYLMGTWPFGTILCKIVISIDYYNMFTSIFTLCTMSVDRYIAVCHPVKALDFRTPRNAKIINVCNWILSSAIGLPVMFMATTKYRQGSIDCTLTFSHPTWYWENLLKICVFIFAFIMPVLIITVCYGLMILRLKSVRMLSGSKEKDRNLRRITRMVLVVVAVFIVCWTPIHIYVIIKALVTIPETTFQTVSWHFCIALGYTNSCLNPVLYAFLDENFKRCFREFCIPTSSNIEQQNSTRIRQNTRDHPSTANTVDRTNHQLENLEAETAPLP

As to `CN(C)C(c1cccs1)C1CCC(CCNC(=O)COCCN(C)S(=O)(=O)c2ccc(Cl)cc2Cl)CC1` (centres unmarked) [Example 9, 2-(2-(2,4-dichloro-N-methylphenylsulfonamido)ethoxy)-N-(2-(4-((dimethylamino) (thiophen-2-yl)methyl)cyclohexyl)ethyl)acetamide], the inhibition at 1 µM was 98%.

As for `CN(C)C(c1cccs1)C1CCC(NC(=O)COCCN(C)S(=O)(=O)c2ccc(F)cc2)CC1` (centres unmarked) [Example 10, N-(4-((dimethylamino)(thiophen-2-yl)methyl)cyclohexyl)-2-(2-(4-fluoro-N-methylphenylsulfonamido)ethoxy)acetamide], the inhibition at 1 µM was 98%.

As for `CN(C)C(c1cccs1)C1CCC(NC(=O)COC2CCN(S(=O)(=O)c3cccc(C(F)(F)F)c3)C2)CC1` (centres unmarked) [Example 11, N-(4-((dimethylamino)(thiophen-2-yl)methyl)cyclohexyl)-2-(1-(3-(trifluoromethyl)phenylsulfonyl)pyrrolidin-3-yloxy)acetamide], the inhibition at 1 µM is 98%.

As to `Cc1cc(C)c(S(=O)(=O)N2CCC(OCC(=O)NC3CCC(C(c4cccs4)N(C)C)CC3)C2)c(C)c1` (centres unmarked) [Example 12, N-(4-((dimethylamino)(thiophen-2-yl)methyl)cyclohexyl)-2-(1-(mesitylsulfonyl)pyrrolidin-3-yloxy)acetamide], the inhibition at 1 µM stood at 98%.

As for `CN(C)C(c1ccccc1)C1CCC(CNC(=O)COCCN(C)S(=O)(=O)c2c(Cl)cccc2Cl)CC1` (centres unmarked) [Example 13, 2-(2-(2,6-dichloro-N-methylphenylsulfonamido)ethoxy)-N-((4-((dimethylamino)(phenyl)methyl)cyclohexyl)methyl)acetamide], the inhibition at 1 µM was found to be 98%.

For `CN(C)C(c1ccccc1)C1CCC(CNC(=O)COCCN(C)S(=O)(=O)c2c(Cl)cc(Cl)cc2Cl)CC1` (centres unmarked) [Example 14, N-((4-((dimethylamino)(phenyl)methyl)cyclohexyl)methyl)-2-(2-(2,4,6-trichloro-N-methylphenylsulfonamido)ethoxy)acetamide], the inhibition at 1 µM was 98%.

Consider `CN(C)C(c1ccccc1)C1CCC(CNC(=O)COCCN(Cc2ccccc2)S(=O)(=O)c2ccccc2)CC1` (centres unmarked) [Example 15, 2-(2-(N-benzylphenylsulfonamido)ethoxy)-N-((4-((dimethylamino)(phenyl)methyl)cyclohexyl)methyl)acetamide], for which the inhibition at 1 µM turned out to be 98%.

In the case of `CCN(CCOCC(=O)NCC1CCC(C(c2cccs2)N(C)C)CC1)S(=O)(=O)c1c(C)cc(OC)c(C)c1C` (centres unmarked) [Example 16, N-((4-((dimethylamino)(thiophen-2-yl)methyl)cyclohexyl)methyl)-2-(2-(N-ethyl-4-methoxy-2,3,6-trimethylphenylsulfonamido)ethoxy)acetamide], the inhibition at 1 µM stood at 98%.

With `CN(C)C(c1ccccc1)C1CCC(CNC(=O)COCC2CCCCN2S(=O)(=O)c2ccc(Cl)c(Cl)c2)CC1` (centres unmarked) [Example 17, 2-((1-(3,4-dichlorophenylsulfonyl)piperidin-2-yl)methoxy)-N-((4-((dimethylamino)(phenyl)methyl)cyclohexyl)methyl)acetamide], the inhibition at 1 µM worked out at 98%.

Consider `CN(C)C(c1ccccc1)C1CCC(CNC(=O)COCC2CCCN2S(=O)(=O)c2ccc(Cl)c(Cl)c2)CC1` (centres unmarked) [Example 18, 2-((1-(3,4-dichlorophenylsulfonyl)pyrrolidin-2-yl)methoxy)-N-((4-((dimethylamino)(phenyl)methyl)cyclohexyl)methyl)acetamide], for which the inhibition at 1 µM is 98%.

On to `COc1ccc(S(=O)(=O)N2Cc3ccccc3CC2COCC(=O)NCC2CCC(C(c3ccccc3)N(C)C)CC2)cc1` (centres unmarked) [Example 19, N-((4-((dimethylamino)(phenyl)methyl)cyclohexyl)methyl)-2-((2-(4-methoxyphenylsulfonyl)-1,2,3,4-tetrahydroisoquinolin-3-yl)methoxy)acetamide], for which the inhibition at 1 µM was 98%.
